Laboratory results reported in patent US20090238792A1, “SUPPRESSION OF POSTOPERATIVE ILEUS” (University of Pittsburgh of the Commonwealth System of …, priority 2007, published 2009).

How the values were obtained:
[1] = system: rats with surgical manipulation of the intestine; assay: Rat in vivo gastrointestinal transit of fluorescein-labeled dextran (geometric center)
Protocol: (§1) Age matched animals treated with vehicle (normal saline) or valine (263.5 mg/kg, osmotic control) at appropriate time points and at equal volumes served as controls.
(§2) The rodent intestine was subjected to a standardized degree of surgical manipulation as described previously (14). Rats were anesthetized by isoflurane inhalation and the abdomen was opened by a midline laparotomy. The cecum was eventrated and laid out onto a moist gauze. Then, the intestine was inspected along its length and gently compressed using moist cotton applicators. The midline incision was closed by two layers of continuous sutures. All operative procedures were performed under sterile conditions with the intestine being handled only by instruments and never touched directly. Animals were killed at specific time points postoperatively by isoflurane anesthesia inhalation overdose and heart incision.
(§3) Methods: ACI-rats (180-220 g) underwent standardized surgical manipulation of the intestine. […] Age matched animals treated with vehicle or valine (osmotic control) at appropriate time points and at equal volumes served as controls. […] Postoperative mediator mRNA expression in the intestinal muscularis was determined by real-time RT PCR. Leukocyte extravasation was investigated in muscularis whole-mounts. Nitrite production was measured in muscularis cultures. In vivo transit of FITC-dextran was measured using geometric center analysis (GC). In vitro circular muscle contractility was assessed in a standard organ bath. Statistical analysis: unpaired Student t test, p<0.05, mean±SEM.

[2] = system: prostanoids; assay: Prostanoid release (ELISA) from organ cultured muscularis; assay type: in vivo, rat; settings: manipulated rats, glycine 170 mg/kg or valine
Protocol: Age matched animals treated with vehicle (normal saline) or valine (263.5 mg/kg, osmotic control) at appropriate time points and at equal volumes served as controls. The rodent intestine was subjected to a standardized degree of surgical manipulation as described previously (14). Rats were anesthetized by isoflurane inhalation and the abdomen was opened by a midline laparotomy. The cecum was eventrated and laid out onto a moist gauze. Then, the intestine was inspected along its length and gently compressed using moist cotton applicators. The midline incision was closed by two layers of continuous sutures. All operative procedures were performed under sterile conditions with the intestine being handled only by instruments and never touched directly. Animals were killed at specific time points postoperatively by isoflurane anesthesia inhalation overdose and heart incision. The synthesis of prostanoids released into the tissue culture supernatant over a period of 24 hours was assayed by ELISA. After incubation the culture median and tissue was inspected, 500 μL aliquots of supernatant were frozen in liquid nitrogen and stored at −80° C. The muscle tissue was blotted dry and weighed. Culture supernatants were assayed for the measurement of prostaglandin secretion by enzyme immunoassay (Cayman Chemicals, Ann Arbor, Mich.). The ELISA was carried out in a 1:10 and 1:30 dilution. The assay was corrected for wet tissue weights and the prostaglandin ELISA kit sensitivity was 20 pg/ml.

[3] = system: IL-6 mRNA; assay: Real-time RT-PCR of muscularis IL-6 mRNA 3 hours postoperatively; assay type: in vivo, rat
Protocol: as §1, §2
(§4) mRNA Expression Analysis: Postoperative mediator mRNA expressions in the small intestinal muscularis were analyzed using SYBR Green two-step real-time RT-PCR as previously described, (N=4-6). […] Total mRNA extraction was performed using the guanidium-thiocyanate phenol-chloroform extraction method. Equal aliquots (200 ng) of total RNA from each sample, quantified by spectrophotometer, were processed for complimentary DNA (cDNA) synthesis. Primer sequences were used as described previously (tumor necrosis factor-a, TNF-a) (35), or designed according to published sequences 36-41, (GenBank accession numbers: NM_017008 [glyceraldehyde phosphate dehydrogenase (GAPDH)], AF233596 [cyclo-oxygenase-2 (COX-2)], NM_012967 [intercellular adhesion molecule-1 (ICAM-1)], M26744 [interleukin-6 (IL-6)] and NM_012611 [inducible nitric oxide synthase (iNOS)]), using Primer Express software (PE Applied Biosystems, Foster City, Calif.) and purchased from Life Technologies (Rockville, Md.). GAPDH was used as an endogenous control. The efficiency and equality of the real-time PCR primer pairs were determined by amplifying serial dilutions of muscularis cDNA. For each target gene different MgCl2 (3 to 5 mM) concentrations were tested to optimize the PCR amplification. […] Relative quantification was performed using the comparative CT method as described by Schmittgen et al. (42).
Methods: ACI-rats (180-220 g) underwent standardized surgical manipulation of the intestine. […] Postoperative mediator mRNA expression in the intestinal muscularis was determined by real-time RT PCR. […] Nitrite production was measured in muscularis cultures. In vivo transit of FITC-dextran was measured using geometric center analysis (GC). In vitro circular muscle contractility was assessed in a standard organ bath. […]

[4] = system: iNOS mRNA; settings: 3 hours postoperatively
Protocol: as §1, §2
as §4, with “amplification. Agarose gel electrophoretic analysis was used to verify the presence of a single product and that the amplified product corresponded to size predicted for the amplicon. The PCR reaction mixture was prepared using the SYBR Green PCR Core Reagents (PE Applied Biosystems, Foster City, Calif.). PCR conditions on an ABI PRISM 7700 Sequence Detection System (PE Applied Biosystems, Foster City, Calif.) were as recommended by the manufacturer. Each sample was estimated in duplicate.” for “amplification.”
as §3

[5] = system: TNF-α mRNA; settings: 3 hours postoperatively
Protocol: as §1, §2
as §4, with “amplification. Agarose gel electrophoretic analysis was used to verify the presence of a single product and that the amplified product corresponded to size predicted for the amplicon. The PCR reaction mixture was prepared using the SYBR Green PCR Core Reagents (PE Applied Biosystems, Foster City, Calif.). PCR conditions on an ABI PRISM 7700 Sequence Detection System (PE Applied Biosystems, Foster City, Calif.) were as recommended by the manufacturer. Each sample was estimated in duplicate.” for “amplification.”
as §3

[6] = system: ICAM-1 mRNA; settings: 3 hours postoperatively
Protocol: as §1, §2
as §4, with “amplification. Agarose gel electrophoretic analysis was used to verify the presence of a single product and that the amplified product corresponded to size predicted for the amplicon. The PCR reaction mixture was prepared using the SYBR Green PCR Core Reagents (PE Applied Biosystems, Foster City, Calif.). PCR conditions on an ABI PRISM 7700 Sequence Detection System (PE Applied Biosystems, Foster City, Calif.) were as recommended by the manufacturer. Each sample was estimated in duplicate.” for “amplification.”
as §3

[7] = system: jejunal circular smooth muscle; assay: In vitro bethanechol stimulated contractile activity of jejunal circular muscle strips; assay type: in vivo, rat; settings: for mean contractile force, bethanechol stimulated: manipulated rats, 100 mM bethanechol, control 3.2±0.2, SM vehicle 1.9±0.1
Protocol: as §1, §2
Mechanical in vitro activity of the rat mid-jejunum was evaluated at 24 hours postoperatively using smooth muscle strips of the circular muscularis as described previously (rats: N=5-11) (14). After dissection and a 30 minute equilibration period, the individual muscles were incrementally stretched to L0. Then after recording spontaneous contractility for 30 minutes, dose response curves were generated using increasing concentrations of the muscarinic agonist bethanechol ([…]) for 10 minutes and intervening wash periods (KRB) of 10 minutes. The contractile response was recorded and analyzed as g/mm2/sec over a 10 minute period.
as §3

[8] = Example 5, glycine (170 mg) i.v. 1 hour prior to surgery

In the case of `NCC(=O)O` [glycine], the “postoperative intestinal transit” value [1, 8] is reported as “ameliorated”, the “geometric center (GC) of gastrointestinal transit” value ([1]; surgically manipulated rats, 24 h postoperatively, i.v. pretreatment 1 h before surgery, glycine 170 mg/kg, valine 263.5 mg/kg, SM vehicle GC=5.2±0.7) is reported as 8.5±0.7 and the “prostanoid release, fold of control, colon” value ([2]; colonic muscularis 24 h organ culture, SM 3.1-fold) is reported as 0.7 fold. The “prostanoid release, fold of control, jejunum” value ([2]; jejunal muscularis 24 h organ culture, SM 5.9-fold) was 0.9 fold, the “IL-6 mRNA induction vs non-operated vehicle treated controls” value ([3]; glycine pretreatment, 3 hours postoperatively, manipulation alone 8521 fold) was 2742 fold and the “mediator mRNA levels in non-operated animals vs non-operated vehicle rats” value ([3]; non-operated glycine injected rats) was “did not differ”. For the same compound, the “postoperative induction of IL-6 mRNA” value ([3]; surgically manipulated rats, 3 hours postoperatively) was “significantly attenuated”, the “surgical induction of iNOS mRNA” value ([4]; SM vehicle 197.1-fold) was “significantly suppressed” and the “iNOS mRNA induction vs non-operated vehicle treated controls” value ([4]; glycine pretreatment, manipulation alone 197 fold) was 17 fold. The “TNF-α mRNA induction vs non-operated vehicle treated controls” value ([5]; glycine pretreatment, manipulation alone 3.4 fold) was 1.9 fold, the “postoperative induction of TNF-α mRNA” value ([5]; surgically manipulated rats) was “attenuation” and the “ICAM-1 mRNA induction vs non-operated vehicle treated controls” value ([6]; glycine pretreatment, manipulation alone 21 fold) was 14 fold. For the same compound, the “postoperative induction of ICAM-1 mRNA” value ([6]; surgically manipulated rats) was “attenuation”, the “amelioration of postoperative muscularis contractility” value [7, 8] was 54% and the “mean contractile force, bethanechol stimulated” value ([7]; 85 mg/kg glycine) was 2.4±0.3 g/mm2/s. For the same compound, the “mean contractile force, bethanechol stimulated” value ([7]; 170 mg/kg glycine or valine pretreatment) was 2.9±0.3 g/mm2/s.
